Values quoted from earlier work, collected in US11058116B1, “Composition for stimulating plant growth and resistance to stress factors” (AGRATEK PTE. LTD., priority 2018, dated 2021).

What was measured:
seeds = conditions: pre-treatment of seeds with a solution
mold = conditions: pre-treatment of seeds with a solution

O=C([O-])CCC(=O)[O-].[Mg+2] [succinate of magnesium, magnesium succinate (Mg2C4H4O4)]
germination (increased to) (seeds): 99%
reduces the seeds infection with mold (mold): 86%
